EC50 data for 16 compounds are collected here from US20260209234A1, “SUBSTITUTED DIHYDROPYRROLO[3,4-D]PYRIMIDINE COMPOUNDS AND THEIR USE IN TREATING MEDICAL CONDITIONS” (Karuna Therapeutics, Inc., priority 2022, published 2026).

pEC50: −log10 of the molar value.

One assay concerns the target T1, hM4 receptors (Homo sapiens, UniProt P08173).
T1 construct: expressed in transfected cells; host or cells: CHO cells
T1 sequence (P08173 1-479): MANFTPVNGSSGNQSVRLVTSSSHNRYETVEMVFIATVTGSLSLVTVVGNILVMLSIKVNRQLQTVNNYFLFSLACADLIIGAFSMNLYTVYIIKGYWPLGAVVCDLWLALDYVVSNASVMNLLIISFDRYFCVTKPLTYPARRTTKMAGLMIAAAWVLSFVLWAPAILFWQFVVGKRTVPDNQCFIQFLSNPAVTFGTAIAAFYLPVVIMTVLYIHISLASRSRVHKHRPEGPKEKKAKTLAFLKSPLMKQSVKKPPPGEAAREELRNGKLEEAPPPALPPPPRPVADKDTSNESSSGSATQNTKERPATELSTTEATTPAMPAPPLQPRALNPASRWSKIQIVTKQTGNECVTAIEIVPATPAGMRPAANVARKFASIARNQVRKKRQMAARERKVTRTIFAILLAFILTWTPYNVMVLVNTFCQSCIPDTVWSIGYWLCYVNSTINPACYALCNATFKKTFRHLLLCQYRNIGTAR
Description: Human M4 PAM pERK assay. The settings on record: CHO cells expressing hM4; EC20 of acetylcholine (10 nM final); TR-FRET. The class given is cell-based. As to the method:
(§1) Chinese hamster ovary (CHO) cells expressing either hM4 or rM4 receptors were frozen in assay ready vials (5×10^6 cells/vial) after bulking-up in culture. The day before an assay, vial(s) were thawed and cells seeded in 384 well white proxiplates at 1000/well for hM4 cells and at 2000/well for rM4 cells, in 10 μL of growth media (Hams/F12 with glutamax and 10% FCS) and incubated overnight at 37° C./5% CO2.
(§2) On the following morning, the growth media was removed by ‘flicking out’ over a bin, patting the inverted plate onto tissue, and then replacing with 10 μL of wash media (Hams/F12 with glutamax and 8 mM HEPES, NB: serum free). Then, the wash media was removed in the same way and replaced with 8 μL/well of the serum free media. Plates were then re-incubated for a further 4 hours at 37° C./5% CO2.
(§3) Compounds for testing were solubilized to 10 mM in DMSO and compound addition plates, consisting of ten-point concentration response curves (CRC) in duplicate points (10 μM top concentration, 1/2 log dilution series), were prepared by acoustic dispensing and the compound management group.
(§4) After the 4-hour incubation in serum free media, a 4 μL aliquot of the 3× compound solution containing an EC20 of acetylcholine (10 nM final concentration) was added to the cell plate using a 384 well plate to plate transfer. Then, the plate lid was replaced, and the cells incubated for 5 mins at 37° C./5% CO2. Following this final incubation, all cellular processes were stopped by the addition of 4 μL/well of lysis and blocking buffer and plates were incubated for 30 minutes at RT on an orbital shaker (gentle setting). Then, a final addition of 4 μL/well of antibody detection mix, containing both the Europium-Cryptate (donor) and d2 (acceptor) tagged detection components, was added followed by a further 2-hour incubation at RT, and then the plate was read using a TR-FRET (time resolved fluorescence resonance energy transfer) based protocol.
Background: TR-FRET usually uses a lanthanide donor and a delayed reading to cut background.

The target in the next assay is T2, rM4 receptors (Rattus norvegicus, UniProt P08485).
T2 construct: expressed in transfected cells; host or cells: CHO cells
T2 sequence (P08485 1-478): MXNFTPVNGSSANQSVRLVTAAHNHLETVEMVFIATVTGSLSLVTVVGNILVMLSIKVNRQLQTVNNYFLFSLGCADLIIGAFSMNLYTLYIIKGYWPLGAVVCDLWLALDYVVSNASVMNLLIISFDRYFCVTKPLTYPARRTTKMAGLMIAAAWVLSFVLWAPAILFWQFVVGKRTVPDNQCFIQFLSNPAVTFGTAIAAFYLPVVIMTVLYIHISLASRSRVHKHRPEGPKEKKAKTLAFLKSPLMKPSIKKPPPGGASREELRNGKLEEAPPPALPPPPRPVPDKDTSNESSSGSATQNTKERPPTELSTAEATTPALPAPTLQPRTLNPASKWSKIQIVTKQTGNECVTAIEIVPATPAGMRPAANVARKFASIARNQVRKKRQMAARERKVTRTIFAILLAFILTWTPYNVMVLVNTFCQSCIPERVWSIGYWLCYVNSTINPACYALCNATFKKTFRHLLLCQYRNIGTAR
Description: Rat M4 PAM pERK assay. The class given is cell-based. The settings on record: CHO cells expressing rM4; EC20 of acetylcholine (10 nM final); TR-FRET. As to the method:
as §1, §2, §3, §4

As a reminder, the pEC50 is the EC50 on a negative log10 scale, so that one unit is a factor of ten.

As for `COc1nc(C#N)nc2c1C(C)N(C(=O)CC1CN(c3cncnc3)C1)C2` (single isomer, unassigned) [Compound I-26, 4-Methoxy-5-methyl-6-(2-(1-(pyrimidin-5-yl)azetidin-3-yl)acetyl)-6,7-dihydro-5H-pyrrolo[3,4-d]pyrimidine-2-carbonitrile], the figures for the pEC50 on hM4 receptors and on rM4 receptors were 5.70 to 6.30 and at most 5.70, respectively.

`COc1nc(C)nc2c1C(C)N(C(=O)CC1CN(c3cncnc3)C1)C2` (single isomer, unassigned) [Compound I-59, 1-(4-Methoxy-2,5-dimethyl-5,7-dihydro-6H-pyrrolo[3,4-d]pyrimidin-6-yl)-2-(1-(pyrimidin-5-yl)azetidin-3-yl)ethan-1-one]: the pEC50 on hM4 receptors was at least 7.00; at rM4 receptors it was 5.70 to 6.30.

For `COc1nc(C#N)nc2c1C(C)N(C(=O)CC1CN(c3cc(F)cc(F)c3)C1)C2` (single isomer, unassigned) [Compound I-9, 6-(2-(1-(3,5-Difluorophenyl)azetidin-3-yl)acetyl)-4-methoxy-5-methyl-6,7-dihydro-5H-pyrrolo[3,4-d]pyrimidine-2-carbonitrile], the pEC50 on hM4 receptors and on rM4 receptors was at least 7.00 throughout.

With `COc1nc(C)nc2c1CN(C(=O)CC1CN(c3ccnc(C(F)(F)F)c3)C1)C2C` (racemic) [Compound I-61, 1-(4-Methoxy-2,7-dimethyl-5,7-dihydro-6H-pyrrolo[3,4-d]pyrimidin-6-yl)-2-(1-(2-(trifluoromethyl)pyridin-4-yl)azetidin-3-yl)ethan-1-one], the pEC50 at hM4 receptors and on rM4 receptors was 5.70 to 6.30 each time.

`COc1nc(OC(F)F)nc2c1CN(C(=O)CC1CN(c3cccnc3)C1)C2` [Compound I-80, 1-(2-(Difluoromethoxy)-4-methoxy-5,7-dihydro-6H-pyrrolo[3,4-d]pyrimidin-6-yl)-2-(1-(pyridin-3-yl)azetidin-3-yl)ethan-1-one]: the pEC50 at hM4 receptors is 5.70 to 6.30; on rM4 receptors, at most 5.70.

Take `COc1cc(N2CC(CC(=O)N3Cc4nc(C#N)nc(OC)c4C3C)C2)ccn1` (single isomer, unassigned) [Compound I-17, 4-Methoxy-6-(2-(1-(2-methoxypyridin-4-yl)azetidin-3-yl)acetyl)-5-methyl-6,7-dihydro-5H-pyrrolo[3,4-d]pyrimidine-2-carbonitrile]: the pEC50 at hM4 receptors and at rM4 receptors was at most 5.70 throughout.

Take `COc1nc(C#N)nc2c1C(C)N(C(=O)CC1C(C)N(c3ccnc(C(F)(F)F)c3)C1C)C2` (centres unmarked) [Compound I-40, 6-(2-(2,4-Dimethyl-1-(2-(trifluoromethyl)pyridin-4-yl)azetidin-3-yl)acetyl)-4-methoxy-5-methyl-6,7-dihydro-5H-pyrrolo[3,4-d]pyrimidine-2-carbonitrile]: the pEC50 at hM4 receptors is 5.70 to 6.30; at rM4 receptors it was 6.30 to 7.00.

Turning to `Cc1nc2c(c(NC3CC3)n1)CN(C(=O)CC1CN(c3cccnc3)C1)C2` [Compound I-73, 1-(4-(Cyclopropylamino)-2-methyl-5,7-dihydro-6H-pyrrolo[3,4-d]pyrimidin-6-yl)-2-(1-(pyridin-3-yl)azetidin-3-yl)ethan-1-one], the pEC50 on hM4 receptors is 5.70 to 6.30; at rM4 receptors, at most 5.70.

Regarding `COc1nc(C(F)(F)F)nc2c1CN(C(=O)CC1CN(c3cccnc3)C1)C2` [Compound I-78, 1-(4-Methoxy-2-(trifluoromethyl)-5,7-dihydro-6H-pyrrolo[3,4-d]pyrimidin-6-yl)-2-(1-(pyridin-3-yl)azetidin-3-yl)ethan-1-one], the pEC50 on hM4 receptors was 6.30 to 7.00; on rM4 receptors, 5.70 to 6.30.

`COc1nc(C#N)nc2c1C(C)N(C(=O)CC1CN(c3cccc(C(F)(F)F)c3)C1)C2` (single isomer, unassigned) [Compound I-16, 4-Methoxy-5-methyl-6-(2-(1-(3-(trifluoromethyl)phenyl)azetidin-3-yl)acetyl)-6,7-dihydro-5H-pyrrolo[3,4-d]pyrimidine-2-carbonitrile]: the pEC50 on hM4 receptors and at rM4 receptors was 6.30 to 7.00 in each case.

Turning to `COc1nc(C#N)nc2c1C(C)N(C(=O)CC1CN(c3cc(F)cc(F)c3)C1)C2` (single isomer, unassigned) [Compound I-10, 6-(2-(1-(3,5-Difluorophenyl)azetidin-3-yl)acetyl)-4-methoxy-5-methyl-6,7-dihydro-5H-pyrrolo[3,4-d]pyrimidine-2-carbonitrile], the negative-log EC50 (pEC50) on hM4 receptors and on rM4 receptors was at most 5.70 in each case.

Consider `COc1nc(C)nc2c1CN(C(=O)CC1CN(c3cccnc3)C1)C2` [Compound I-41, 1-(4-Methoxy-2-methyl-5,7-dihydro-6H-pyrrolo[3,4-d]pyrimidin-6-yl)-2-(1-(pyridin-3-yl)azetidin-3-yl)ethan-1-one], for which the results for the pEC50 at hM4 receptors and on rM4 receptors were 6.30 to 7.00 and 5.70 to 6.30, respectively.

`COc1nc(C2COC2)nc2c1CN(C(=O)CC1CN(c3ccnc(C(F)(F)F)c3)C1)C2` [Compound I-77, 1-(4-Methoxy-2-(oxetan-3-yl)-5,7-dihydro-6H-pyrrolo[3,4-d]pyrimidin-6-yl)-2-(1-(2-(trifluoromethyl)pyridin-4-yl)azetidin-3-yl)ethan-1-one]: the pEC50 on hM4 receptors and at rM4 receptors was at most 5.70 each time.

Turning to `COc1nc(C#N)nc2c1C(C)N(C(=O)CC1CN(c3ncns3)C1)C2` (single isomer, unassigned) [Compound I-3, 6-(2-(1-(1,2,4-Thiadiazol-5-yl)azetidin-3-yl)acetyl)-4-methoxy-5-methyl-6,7-dihydro-5H-pyrrolo[3,4-d]pyrimidine-2-carbonitrile], the pEC50 is 6.30 to 7.00 at hM4 receptors and 5.70 to 6.30 at rM4 receptors.

`COc1cc(N2CC(CC(=O)N3Cc4nc(C#N)nc(OC)c4C3C)C2)ccn1` (single isomer, unassigned) [Compound I-18, 4-Methoxy-6-(2-(1-(2-methoxypyridin-4-yl)azetidin-3-yl)acetyl)-5-methyl-6,7-dihydro-5H-pyrrolo[3,4-d]pyrimidine-2-carbonitrile]: the pEC50 at hM4 receptors is at least 7.00; at rM4 receptors it was 5.70 to 6.30.

Take `CNc1nc(C)nc2c1CN(C(=O)CC1CN(c3cccnc3)C1)C2` [Compound I-72, 1-(2-Methyl-4-(methylamino)-5,7-dihydro-6H-pyrrolo[3,4-d]pyrimidin-6-yl)-2-(1-(pyridin-3-yl)azetidin-3-yl)ethan-1-one]: the pEC50 on hM4 receptors was 5.70 to 6.30; on rM4 receptors, at most 5.70.
